From the NIST ThermoML archive (doi:10.1007/s10765-006-0114-6)

Details: Fluid (supercritical or subcritical phases), vibrating plate method

[Ar] [argon]
Details | mass density [kg/m3] | viscosity [mPa·s]
323.16 K, 7006 kPa | 107.17 | 0.02744
323.16 K, 13877 kPa | 213.45 | 0.02979
323.16 K, 20899 kPa | 316.3 | 0.03257
323.16 K, 27679 kPa | 408.2 | 0.0352
323.16 K, 34459 kPa | 489.8 | 0.0382
323.16 K, 41249 kPa | 561.2 | 0.0415
323.16 K, 48119 kPa | 624.2 | 0.0448
323.16 K, 54885 kPa | 678.5 | 0.0481
323.16 K, 61690 kPa | 726.2 | 0.0512
323.16 K, 68312 kPa | 767.5 | 0.0542
348.15 K, 6978 kPa | 97.69 | 0.02904
348.15 K, 17496 kPa | 241.15 | 0.03308
348.15 K, 27653 kPa | 368.7 | 0.0358
348.15 K, 34469 kPa | 444.9 | 0.0381
348.15 K, 41288 kPa | 513.1 | 0.0407
348.15 K, 48154 kPa | 574.3 | 0.0434
348.15 K, 54879 kPa | 627.8 | 0.0463
348.15 K, 61690 kPa | 676.3 | 0.049
348.15 K, 68529 kPa | 719.8 | 0.051
398.11 K, 7360 kPa | 88.47 | 0.0292
398.11 K, 13876 kPa | 165.12 | 0.03138
398.11 K, 27719 kPa | 316.2 | 0.0362
398.11 K, 34448 kPa | 382.2 | 0.0386
398.11 K, 41294 kPa | 443.6 | 0.0417
398.11 K, 48140 kPa | 499.6 | 0.0441
398.11 K, 54949 kPa | 550.4 | 0.0466
398.11 K, 61785 kPa | 596.9 | 0.0491
423.11 K, 7008 kPa | 79.27 | 0.03113
423.11 K, 7272 kPa | 82.13 | 0.02996
423.11 K, 14124 kPa | 157.84 | 0.03214
423.11 K, 14381 kPa | 160.69 | 0.03398
423.11 K, 21056 kPa | 231.04 | 0.0342
423.11 K, 21065 kPa | 231.06 | 0.0361
423.11 K, 27779 kPa | 297.59 | 0.0381
423.11 K, 27786 kPa | 297.92 | 0.0359
423.11 K, 34529 kPa | 359.8 | 0.0403
423.11 K, 34605 kPa | 361 | 0.0376
423.11 K, 41249 kPa | 417.7 | 0.0398
423.11 K, 48189 kPa | 472.3 | 0.0418
423.11 K, 48197 kPa | 472.3 | 0.0421
423.11 K, 55018 kPa | 521.5 | 0.0444
423.11 K, 61834 kPa | 566.5 | 0.0467
423.11 K, 68620 kPa | 608 | 0.0493
